Measurements taken from US8153165B2, “Preparation and use for reducing the damaging effect of ammonia on organisms living in water” (Tetra GmbH, priority 2006, dated 2012).

Key:
[1] = test system: types of fish common in aquariums (acute toxicity of ammonia); test: Behavior of aquarium fish in water with 1000 μmol/l of total ammonia, with and without preparation; format: in vivo; details: for reduction of the acute toxicity of ammonia in water animals, in particular ornamental fish: in vivo
Description: In aquariums holding 50 liters, the aquarium water was set to the following values:
Metered addition of a NH4Cl solution set to pH 8.2 predetermined a total ammonia concentration of 1000 μmol/l.
The aquariums were stocked with types of fish common in aquariums: • Xiphosphorus maculatus • Brachydanio rerio • Paracheirodon innesi • Rasbora heteromorpha • Colisa lalia • Papiliochromis ramirezi • Melanochromis splendida • Megalamphodus sweglesi • Corydoras spec
Only about 30% of the test fish behaved normal. […] The behavioral pattern observed persisted over 48-72 h, i.e. 2-3 days.
In the following tables, the average values of the behavior of all types of fish are represented averaged depending on the time and dose of glyoxal.2NaHSO3: (Comparison: control with 1000 μmol/l of total ammonia without treatment)

[2] = NH3 concentration ranges common in keeping water; cited from earlier work
[3] = Chemical changes in the keeping water (pH, carbonate hardness); format: physicochemical
Description: The positive effect may originate from the preparation itself, wherein, for example glyoxal.2NaHSO3 acts as a protecting agent in the gill area. The second possibility is an indirect effect by influencing the water chemistry, which again results in a shift of the NH3/NH4^+ equilibrium. Glyoxal-2NaHSO3 causes two different chemical changes in the keeping water:
1. pH reduction by up to 0.5 units, which persists considerably longer than with state of the art preparations and products, for example a reduction by 0.3 pH units up to 72 hours following the dose.
2. […] This surprising chemical behavior, too, is not found with state of the art products or preparations.

[4] = test system: fish and other water organisms; test: Compatibility of the adduct alone; format: in vivo
Experimental: The adduct alone is very well compatible for fish and other water organisms up to high concentrations of 140 mg/l.

[5] = Stability of liquid product formulations; format: physicochemical; details: extended pH range between pH 3 and 9

## O=S(=O)([O-])C(O)CCCC(O)S(=O)(=O)[O-].[Na+].[Na+] (centres unmarked) [NaHSO3 bisadduct of glutardialdehyde]
[1]
  reduction of the acute toxicity of ammonia in water animals, in particular ornamental fish: especially effective

## O=S(=O)([O-])C(O)CC(O)S(=O)(=O)[O-].[Na+].[Na+] (centres unmarked) [NaHSO3 bisadduct of malondialdehyde]
[1]
  reduction of the acute toxicity of ammonia in water animals, in particular ornamental fish: show the desired reduction of the acute toxicity of ammonia

## O=S(=O)([O-])C(O)CCC(O)S(=O)(=O)[O-].[Na+].[Na+] (centres unmarked) [NaHSO3 bisadduct of succindialdehyde]
[1]
  reduction of the acute toxicity of ammonia in water animals, in particular ornamental fish: show the desired reduction of the acute toxicity of ammonia

## O=S(=O)([O-])C(O)CO.[Na+] (centres unmarked) [NaHSO3 monoadduct of glycolaldehyde]
[1]
  reduction of the acute toxicity of ammonia in water animals, in particular ornamental fish: show the desired reduction of the acute toxicity of ammonia

## O=S(=O)([O-])CO.[Na+] [sodium hydroxymethanesulfonate]
[2]
  reduction in the ammonia concentration: Neither a reduction in the ammonia concentration
  reduction of the NH3 toxicity: nor a, however disposed, reduction of the NH3 toxicity could be observed

## O=S(=O)([O-])C(O)C(O)S(=O)(=O)[O-].[Na+].[Na+] (centres unmarked) [glyoxal•2NaHSO3, NaHSO3 bisadduct of glyoxal]
[3]
  time after which the carbonate hardness reduction sets in: about 24 hours
  time the carbonate hardness reduction lasts: up to 72 hours
[3]; keeping water
  Reduction of the carbonate hardness: 0.5-0.60 dH
[3]; maximum
  pH reduction in the keeping water: up to 0.5 units
[3]; up to 72 hours following the dose
  pH reduction in the keeping water: 0.3 pH units
[4]
  concentration up to which the adduct alone is very well compatible for fish and other water organisms: ≤ 140 µg/mL
[1]; 1000 μmol/l of total ammonia, only about 30% normal without preparation
  behavior of the test fish following addition of the preparation: the majority of the test fish behaved normal and showed no signs of damage by ammonia
[1]; Table A, 35 mg/l single dose, 0 hrs (before dose), 1000 μmol/l total ammonia
  Normal behavior show % of the test fish: 89%
[1]; Table A, 35 mg/l single dose, 2 hrs
  Normal behavior show % of the test fish: 67%
[1]; Table A, 35 mg/l single dose, 5 hrs
  Normal behavior show % of the test fish: 67%
[1]; Table A, 35 mg/l single dose, 9 hrs
  Normal behavior show % of the test fish: 67%
[1]; Table A, 35 mg/l single dose, 23 hrs
  Normal behavior show % of the test fish: 56%
[1]; Table A, 35 mg/l single dose, 29 hrs
  Normal behavior show % of the test fish: 67%
[1]; Table A, 35 mg/l single dose, 46 hrs
  Normal behavior show % of the test fish: 67%
[1]; Table A, 35 mg/l single dose, 54 hrs
  Normal behavior show % of the test fish: 56%
[1]; Table A, 35 mg/l single dose, 72 hrs
  Normal behavior show % of the test fish: 44%
[1]; Table B, 130 mg/l single dose, 0 hrs (before dose), 1000 μmol/l total ammonia
  Normal behavior show % of the test fish: 100%
[1]; Table B, 130 mg/l single dose, 2 hrs
  Normal behavior show % of the test fish: 78%
[1]; Table B, 130 mg/l single dose, 4 hrs
  Normal behavior show % of the test fish: 78%
[1]; Table B, 130 mg/l single dose, 8 hrs
  Normal behavior show % of the test fish: 78%
[1]; Table B, 130 mg/l single dose, 24 hrs
  Normal behavior show % of the test fish: 78%
[1]; Table B, 130 mg/l single dose, 48 hrs
  Normal behavior show % of the test fish: 100%
[1]; Table C, three-time dose 35 mg/l every 72 hours, 0 hrs (before doses)
  Normal behavior show % of the test fish: 100%
[1]; Table C, three-time dose 35 mg/l every 72 hours, 2 hrs
  Normal behavior show % of the test fish: 78%
[1]; Table C, three-time dose 35 mg/l every 72 hours, 4 hrs
  Normal behavior show % of the test fish: 78%
[1]; Table C, three-time dose 35 mg/l every 72 hours, 5 hrs
  Normal behavior show % of the test fish: 78%
[1]; Table C, three-time dose 35 mg/l every 72 hours, 24 hrs
  Normal behavior show % of the test fish: 67%
[1]; Table C, three-time dose 35 mg/l every 72 hours, 72 hrs (before 2nd dose)
  Normal behavior show % of the test fish: 78%
[1]; Table C, three-time dose 35 mg/l every 72 hours, 74 hrs
  Normal behavior show % of the test fish: 67%
[1]; Table C, three-time dose 35 mg/l every 72 hours, 96 hrs
  Normal behavior show % of the test fish: 89%
[1]; Table C, three-time dose 35 mg/l every 72 hours, 5 days after the 3rd dose (i.e. 11 days)
  Normal behavior show % of the test fish: 89%
[1]; Table C, three-time dose 35 mg/l every 72 hours, 120 hrs
  Normal behavior show % of the test fish: 89%
[1]; Table C, three-time dose 35 mg/l every 72 hours, 144 hrs (before 3rd dose)
  Normal behavior show % of the test fish: 89%
[1]; Table C, three-time dose 35 mg/l every 72 hours, 145 hrs
  Normal behavior show % of the test fish: 100%
[1]; Table C, three-time dose 35 mg/l every 72 hours, 168 hrs
  Normal behavior show % of the test fish: 89%
[1]; Table C, three-time dose 35 mg/l every 72 hours, 192 hrs
  Normal behavior show % of the test fish: 100%
[1]; Table D comparison, glyoxal•2NaHSO3 35 mg/l, product doses not given, 0 hrs (before dose)
  Normal behavior show % of the test fish: 89%
[1]; Table D comparison, glyoxal•2NaHSO3 35 mg/l, product doses not given, 2 hrs
  Normal behavior show % of the test fish: 67%
[1]; Table D comparison, glyoxal•2NaHSO3 35 mg/l, product doses not given, 5 hrs
  Normal behavior show % of the test fish: 67%
[1]; Table D comparison, glyoxal•2NaHSO3 35 mg/l, product doses not given, 8.5 hrs
  Normal behavior show % of the test fish: 67%
[1]; Table D comparison, glyoxal•2NaHSO3 35 mg/l, product doses not given, 22.5 hrs
  Normal behavior show % of the test fish: 56%
[1]; Table D comparison, glyoxal•2NaHSO3 35 mg/l, product doses not given, 29 hrs
  Normal behavior show % of the test fish: 67%
[1]; Table D comparison, glyoxal•2NaHSO3 35 mg/l, product doses not given, 46 hrs
  Normal behavior show % of the test fish: 67%
[1]; Table D comparison, glyoxal•2NaHSO3 35 mg/l, product doses not given, 54 hrs
  Normal behavior show % of the test fish: 56%
[1]; Table D comparison, glyoxal•2NaHSO3 35 mg/l, product doses not given, 72 hrs
  Normal behavior show % of the test fish: 44%
[1]; during the first 48 hours, 35 mg/l and 130 mg/l
  percentage of test fish with normal behavior versus control without treatment: significantly higher percentage of the test fish shows normal behavior than in the control test
[1]
  reduction of the acute toxicity of ammonia in water animals, in particular ornamental fish: especially effective
[1]; on addition of 5-140 mg/l, preferably 10-50 mg/l
  acute toxicity of ammonia to fish: clearly reduced
[1]; single dose, 1000 μmol/l of total ammonia
  time over which the behavioral pattern observed persisted: 48 to 72 h
[5]
  stability of the liquid product formulations: good stability
